Results reported in patent US20130143244A1, “SOX9 AS A MARKER FOR AGGRESSIVE CANCER” (ADMINISTRATORS OF THE TULANE EDUCATIONAL FUND, priority 2010, published 2013).
Entries after “also recorded” stand apart in the source; their conditions may differ.

Tests used:
Type in all cases: cell-based, human
[1] = tested on: SOX9 localization in MDA-MB-231 cells; assay: Immunofluorescence microscopy of SOX9 localization; details: serum-deprived MDA-MB-231 cells, TSA 500 nM or LMB 5 ng/mL for 4 h, then 10% FBS
Procedure: Cells were grown on sterile glass coverslips in 6 well plates to 30%-40% confluence in their respective media, serum starved for the next 24 h treated with 1 nM all trans retinoic acid, 500 nM TSA or 5 ng/mL Leptomycin B for 4 h and then with 10% FBS for 2-3 h. Coverslips were washed three times in PBS and fixed in 4% paraformaldehyde for 30 minutes. After washing the coverslips again with PBS three times, they were blocked with 10% whole goat serum (Santa Cruz Biotechnology, Inc., Santa Cruz, Calif.) for thirty minutes. Cells were stained with anti-SOX9 (1:1,000 dil) antibody or anti-DDK tag antibody (OriGene Technologies, Inc., Rockville, Md.) and visualized using alexa 488-conjugated or 594-conjugated secondary (1:500 dilution) antibody (Molecular Probes®, Invitrogen Corp., Carlsbad, Calif.) as described previously (Chakravarty et al., Exp Biol Med (Maywood), 234:372-86 (2009)). For analysis, cells were visualized with a Nikon N300 microscope (Nikon Instruments Inc., Melville, N.Y.). Filter sets for FITC and DAPI were used to capture images that were then analyzed with Elements software. To establish that response to growth arrest signals was dependent on SOX9's cellular localization, both cell lines were also cultured on coverslips, serum starved for 24 h, and subsequently exposed to 10% FBS and stained with SOX9 antibody as described above.

MDA-MB-231 cells [2] = assay: MTT cytotoxicity assay; details: for growth of MDA-MB-231 cells relative to control (cell viability by MTT): serum starved, increasing drug concentrations (TSA 50-500 nM, LMB 0.5-10 ng/ml), 48 h; for cell death: serum starved MDA-MB-231 cells, increasing drug concentrations
Procedure: MTT cytotoxicity assay: MDA-MB-231 or MCF7 cells were plated onto 96 well plates at a density of 2.5×10^3 cells/well. Cells were allowed to attach overnight and serum starved for the next 24 h. Following starvation, cells were treated with increasing concentration of Trichostatin A (50-500 nM) or Leptomycin B (0.5-10 ng/ml) and allowed to grow for next 24 h. At the end of 24 h drug treatment, media was supplemented with an equal volume of media with 20% FBS. An MTT assay was used to determine cell viability after exposure to test compounds for 48 h, including the 24 h of incubation with 10% FBS. Briefly, 10 μl of MTT reagent (5 mg/ml in PBS) was added to each well, the plate was incubated for 2-4 h to allow for the formation of formazan crystals, the media was aspirated from all wells and crystals were dissolved with 150 μl DMSO. The optical densities were measured at 540 nm on a BioTek uQuant microplate spectrophotometer (BioTek Instruments, Inc., Winooski, Vt.) and the percent of surviving cells was calculated with respect to control or untreated cells. For the modified MTT assay, the classical MTT reagent was replaced with WST-8, which produces a water soluble formazan dye upon bioreduction. For this assay, at the end of drug treatment, cells were incubated with 10 μl of WST-8 per 100 μl media/per well for 2-3 h. O.D. at 450 nm was measured to determine cell viability in each well.

[3] = tested on: p21, SOX9 and acetylated SOX9 in MDA-MB-231 cells; assay: Immunoblot and immunoprecipitation analysis of p21, SOX9 and acetylated SOX9; details: for p21 expression, arbitrary units normalized to actin level, change compared to cells grown in 10% FBS medium: TSA 500 nM or LMB 5 ng/ml for 4 h
Procedure: Asynchronous cell populations at a density of 50-60% in 6-well plates were serum deprived for 24 h, treated with TSA (500 nM), or Leptomycin B (5 ng/ml) for the next 4 h and then cultured in the presence of 10% FBS for 2-3 h before harvesting. Immunoblotting was performed by solubilizing cells in RIPA buffer, electrophoresing on 10% SDS-PAGE gels, incubating with primary antibodies for 1-2 h at room temperature, and detecting primary antibodies using HRP-conjugated secondary antibodies (1:30,000 dilution, Santa Cruz Biotechnology Inc.) and Amersham® ECU® (GE Healthcare Bio-Sciences Corp., Piscataway, N.J.) as described in Wang et al., Clin Cancer Res., 12:4755-65 (2006). Western blots were quantified by calculating an integrated density value (IDV) for each band using Bio-Rad's Gel Doc™ system and normalizing to the IDV of actin. For immunoprecipitation, total protein lysates were centrifuged at 14,000×g for 15 minutes at 4° C. Supernatants were then transferred to fresh centrifuge tubes and precleared with 50 μl of protein A Sepharose™ bead slurry (50%) per 1 ml of cell lysate. Incubation was continued at 4° C. for 30 minutes on a rocker or orbital shaker. Protein A beads were then collected by centrifugation at 14,000×g at 4° C. for 5 minutes. Protein concentration of the saved supernatant was determined after removing the beads. Approximately 500 μg to 1 mg of protein from each sample was transferred to fresh centrifuge tubes and diluted to 1 ml with ice cold PBS to reduce the concentration of the detergents in the buffer. The diluted lysates were incubated with 2 μg/mg protein anti-SOX9 antibody and rotated overnight at 4° C. Immuno complexes were captured with slurry of protein A-Sepharose™ CL-4B (Sigma) pre-washed with BSA through rotations for 1 h at 4° C. and washed three times with ice-cold modified RIPA buffer (Tris-HCl: 50 mM, pH 7.4, NP-40:1%, Na-deoxycholate: 0.25%, NaCl: 150 mM, EDTA: 1 mM, PMSF: 1 mM, NaF: 1 mM). Washed Sepharose™ beads were resuspended in 60 μl RIPA buffer with SDS dye and resolved on 10% SDS-PAGE gels. Blotted proteins were immunoprobed with antilysine antibody to detect the levels of acetylated SOX9.

MDA-MB-231 cells [4] = assay: Gene expression profiling using RT2 Profiler PCR Array; details: MDA-MB-231 cells serum starved, TSA for 4 h, then FBS
Procedure: MDA-MB-231 cells with or without TSA treatment were harvested for total RNA using Trizol (Invitrogen) and reverse transcribed using RT^2 first strand kit from SABiosciences (Frederick, Md.). Real-Time PCR was performed according to the RT^2 Profiler PCR Array User manual (SABiosciences) using SYBR Green PCR Master Mix for the CFX96™ Real-Time PCR detection system from Bio-Rad (Bio-Rad Laboratories, Inc., Hercules, Calif.). The PAHS-090C PCR Array was repeated twice for each cDNA sample and the data were analyzed using Excel-based PCR Array Data Analysis Templates from SABiosciences.
The average Ct value of each gene obtained from duplicate experiments was used to calculate its expression value, which was expressed as 2−ΔCt (ΔCt=CtGOI−Ave CtHKG; GOI=gene of interest, HKG=housekeeping gene, Ave CtHKG=average Ct value of five housekeeping genes).

[5] = tested on: beta catenin reporter (TOP-flash/FOP-flash) in MDA-MB-231 cells; assay: TOP-flash / FOP-flash beta catenin reporter transfection experiment
Procedure: The Col2a1 reporter gene (Lefebvre et al., Mol Cell Biol, 17:2336-46 (1997)) was kindly provided by Prof. Benoit deCrombrugghe's laboratory. The beta catenin reporter set containing the plasmids TOP-flash and FOP-flash were made available by Prof. Randall Moon's laboratory.
For transfection, MDA-MB-231 cells were cultivated at 2.5×10^5 cells per well in 6-well plates. Twenty four hours later, transfection was performed using lipofectamine 2000 (Invitrogen) according the manufacturer's instruction. Cells in 6-well plates were transfected with 0.250 μg DNA of Col2a1 reporter or […] DNA of Top-flash or Fop-flash reporters, 10 ng of Renilla luciferase and 1.0 μg of wild type DDK tagged SOX9 per well. Top-flash or Fop-flash reporter transfected wells were treated with 15-ng/ml recombinant wnt3a protein (R&D Systems, Inc., Minneapolis, Minn.) after 24 h of transfection. All transfected cells were lysed directly in Promega's Dual Luciferase lysis buffer and collected with a cell scrape. Luciferase measurement was performed using a Optocomp I luminometer (MGM Instruments, Inc., Hamden, Conn.). Cellular localization of wild type DDK tagged SOX9 was detected using immunofluorescence as described above.

## CCC(=C/[C@H](C)C/C=C/C(C)=C/[C@@H](C)C(=O)[C@@H](C)[C@H](O)[C@@H](C)C/C(C)=C/C(=O)O)/C=C/[C@@H]1OC(=O)C=C[C@@H]1C [LMB, leptomycin B]
[1]
  nuclear localization of SOX9: unable to retain SOX9 in the nucleus; also recorded: unaffected
MDA-MB-231 cells [2]
  growth of MDA-MB-231 cells relative to control (cell viability by MTT): unaffected
  cell death: unable to retain SOX9 in the nucleus or induce cell death; also recorded: unaffected
[3]; western blot
  p21 expression, arbitrary units normalized to actin level, change compared to cells grown in 10% FBS medium: 0.08 fold

## CC(/C=C/C(=O)NO)=C\[C@@H](C)C(=O)c1ccc(N(C)C)cc1 [TSA, [R-(E,E)]-7-[4-(Dimethylamino)phenyl]-Nhydroxy-4,6-dimethyl-7-oxo-2,4-heptadienamide]
[1]
  nuclear localization of SOX9: marked increase in nuclear SOX9 staining; also recorded: enhanced nuclear localization of SOX9
MDA-MB-231 cells [2]
  growth of MDA-MB-231 cells relative to control (cell viability by MTT): decrease in proliferative potential; also recorded: markedly heightened sensitivity to growth inhibition
  cell death: dose dependent increase in cell death
[3]; TSA 500 nM for 4 h, immunoprecipitation and anti acetylated lysine blot
  acetylation of endogenous SOX9 protein: enhanced acetylation of endogenous SOX9 protein
[3]; TSA 500 nM for 4 h, western blot
  endogenous SOX9 protein expression, arbitrary units normalized to actin level, increase: 1.2 fold
[3]; western blot
  p21 expression, arbitrary units normalized to actin level, change compared to cells grown in 10% FBS medium: 1.3 fold
MDA-MB-231 cells [4]
  gene expression profile with versus without TSA treatment: several fold higher expression of genes involved in growth, development and differentiation and downregulation of migration, motility and cytoskeletal genes

B1: wnt3a: recombinant wnt3a protein (R&D Systems) used to activate wnt signaling (protein, UniProt P56704 19-352, looked up)
Protein Wnt-3a: SYPIWWSLAVGPQYSSLGSQPILCASIPGLVPKQLRFCRNYVEIMPSVAEGIKIGIQECQHQFRGRRWNCTTVHDSLAIFGPVLDKATRESAFVHAIASAGVAFAVTRSCAEGTAAICGCSSRHQGSPGKGWKWGGCSEDIEFGGMVSREFADARENRPDARSAMNRHNNEAGRQAIASHMHLKCKCHGLSGSCEVKTCWWSQPDFRAIGDFLKDKYDSASEMVVEKHRESRGWVETLRPRYTYFKVPTERDLVYYEASPNFCEPNPETGSFGTRDRTCNVSSHGIDGCDLLCCGRGHNARAERRREKCRCVFHWCCYVSCQECTRVYDVHTCK
[5]; MDA-MB-231 cells transfected with wild type (nuclear) SOX9, 15 ng/ml recombinant wnt3a
  induction of TOP-flash reporter, wnt3a treated versus untreated cells: 22 fold
[5]; MDA-MB-231 cells, mutated LEF-1/TCF-binding sites control vector
  FOP-FLASH reporter activity, wnt3a treated versus untreated cells: unchanged
